Assay results: US12048708B2 (RHOSHAN PHARMACEUTICALS, INC., priority 2017, dated 2024)

Key:
[1] = Lyophilization of aspirin with lysine from water, HPLC analysis; format: physicochemical; settings: ASA with lysine in water, 50 mg/ml, pH 6.5, HPLC
Method: The pH of the solution was 4.5. We added an additional amount of lysine to raise the pH of the bulk solution to 6.5. When all the drug was dissolved, a clear solution was formed. […] The product, however, was not lyophilized properly. The lyophilized cake collapsed.

[2] = Bulk solution stability of ASA in TBA-water system; format: physicochemical; settings: 80/20, 70/30 and 60/40 TBA/water solutions, 24-hour storage at ambient storage conditions
Method: For a robust lyophilization process, the drug should not degrade in the bulk solution for lyophilization for at least 24 hours.

[3] = pH of bulk and reconstituted solutions of ASA lyophilized with bases from TBA/water; format: physicochemical
Text: The pH of the solution was raised to 6.5 using 1N sodium hydroxide. Phase separation was observed, probably due to salting out of inorganic base from TBA/Water system. In the next trial, we first raised the pH of the solution to 5.0 using 1N sodium hydroxide, and then sodium phosphate, dibasic to raise the pH to 6.5. Sodium phosphate, dibasic was used for a better control of pH. Since we still observed phase separation it appears that inorganic bases or buffers may not be compatible with a 80% TBA/20% water system. We may require more water, for example, 70% TBA/30% water in the system to dissolve the alkalinizing agents.
Inorganic buffers such as sodium phosphate, dibasic, are not soluble in this solvent system.
The reconstituted solution pH was 4.71.
In the next trial, we investigated incorporation of […] to facilitate complete neutralization. […] Arginine was, then, slowly added to the slurry to neutralize aspirin. […] The apparent pH of the bulk solution was 6.49. 5 ml aliquots placed in flint vials and lyophilized. Upon completion of lyophilization, the content of vial was reconstituted with 5 ml of Water for Injection. […] The reconstituted solution pH was 4.8.
Based on the above studies, it was evident that larger amount of base is needed to neutralize ASA in the preferred solvent system. To incorporate more base in the bulk solution, we explored use of 60/40 TBA/water system as solvent for lyophilization. […] The apparent pH of the bulk solution was 6.31. […] The reconstituted solution pH was 4.41. […] We reconstituted the lyophile with 5 ml of buffer solution containing different concentrations of disodium phosphate.

[4] = test system: rabbit ear vein; test: IV irritation studies in rabbit ear vein; format: in vivo; settings: ASA solution of different osmolalities (300 to 1300 mOsm/kg) injected in rabbit ear vein
Text: It is an unexpected discovery or finding.

[5] = Particle size distribution (Malvern Master sizer 2000, dry powder volume distribution); format: physicochemical; settings: API used to make the batches
Text: Additionally, we have measured the particle size distribution of the lyophiles and API. The measurement of particle size (Malvern, Master sizer 2000) of all the samples were done by using dry powder volume distribution method.

[6] = cited from earlier work
[7] = test system: platelet aggregation; settings: following oral dosing, oral tablet or capsule; cited from earlier work

o-acetylsalicylic acid [ASA]
ASA degraded during the lyophilization process [1]: about 40%
degradation in bulk solution [2]: No appreciable degradation
apparent pH of the bulk solution ([3]; 2 g aspirin, 100 mg sodium hydroxide, about 1.6 g arginine in 100 ml 70/30 TBA/water): 6.49
apparent pH of the bulk solution ([3]; 2 g of ASA and 400 mg sodium hydroxide in 100 ml 60/40 TBA/water): 6.31
reconstituted solution pH ([3]; lyophile of 2 g aspirin, 100 mg sodium hydroxide, about 1.6 g arginine per 100 ml 70/30 TBA/water, 5 ml aliquot reconstituted with 5 ml Water for Injection): 4.8
IV irritation [4]: no irritation was observed
D50% (μm) [5]: 92.9 μm
D90% (μm) [5]: 249.5 μm
D100% (μm) [5]: 431.0 μm
aqueous solubility [6]: about 3 mg/ml
time to 10% of potency loss ([6]; concentrated bulk solution): about 1.3 hours
onset of inhibition of platelet aggregation [7]: approximately 40 minutes
